A short description of data set [1]: Solvent suspension test of crystal form mixture. It counts as physicochemical. Particulars: 25° C. An excerpt: (Experimental Example 1) Solvent Suspension Test of Crystal Form Mixture
Data set [2] is described as follows: Storage stability test (powder stability). The class given is physicochemical. How it is done:
(Experimental Example 2) Storage Stability Test
(§1) After the end of the storage period, the samples were removed, their chemical purities were measured by high performance liquid chromatography, and the crystal forms were confirmed by x-ray powder analysis.

Data set [3] in a line: Long-term storage stability test (powder stability). It counts as physicochemical. How it is done: (Experimental Example 3) Long-Term Storage Stability Test
as §1

A short description of data set [4]: Photostability test in accordance with ICH Q1B. Particulars: for Stability with respect to light: summary in words of Table 10. The class given is physicochemical. How it is done:
(Experimental Example 4) Photostability Test
After completion of the test, each sample was removed, its chemical purity was measured by high performance liquid chromatography, and the crystal form was confirmed by x-ray powder analysis.

The target of a further data set is T1, human TRPV1 (Homo sapiens, UniProt Q8NER1).
T1 construct: expressed in transfected cells
T1 sequence (Q8NER1 whole entry): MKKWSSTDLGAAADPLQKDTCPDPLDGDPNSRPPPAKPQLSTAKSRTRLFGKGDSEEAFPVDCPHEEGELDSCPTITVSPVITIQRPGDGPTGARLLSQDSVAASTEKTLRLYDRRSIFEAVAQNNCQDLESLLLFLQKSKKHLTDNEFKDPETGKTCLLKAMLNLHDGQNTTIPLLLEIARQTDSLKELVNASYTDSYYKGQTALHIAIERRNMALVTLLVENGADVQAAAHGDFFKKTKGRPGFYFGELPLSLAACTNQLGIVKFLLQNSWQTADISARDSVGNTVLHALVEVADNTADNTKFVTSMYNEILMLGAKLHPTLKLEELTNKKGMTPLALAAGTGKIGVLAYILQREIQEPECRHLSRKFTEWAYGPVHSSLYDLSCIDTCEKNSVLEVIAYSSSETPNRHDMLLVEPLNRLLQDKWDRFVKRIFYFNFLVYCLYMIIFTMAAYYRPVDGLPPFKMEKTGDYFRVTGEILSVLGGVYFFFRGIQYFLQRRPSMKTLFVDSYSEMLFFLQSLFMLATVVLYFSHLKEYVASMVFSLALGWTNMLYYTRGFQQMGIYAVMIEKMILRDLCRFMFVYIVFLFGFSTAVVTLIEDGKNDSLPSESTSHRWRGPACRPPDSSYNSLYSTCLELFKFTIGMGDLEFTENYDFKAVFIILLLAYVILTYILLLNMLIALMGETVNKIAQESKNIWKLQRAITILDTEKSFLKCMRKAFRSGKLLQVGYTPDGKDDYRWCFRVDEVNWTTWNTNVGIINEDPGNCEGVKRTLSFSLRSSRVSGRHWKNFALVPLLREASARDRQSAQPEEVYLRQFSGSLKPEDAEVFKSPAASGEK
As to the kind of experiment: Measurement of capsaicin-induced Ca influx in human TRPV1-transformed CHO cell line. It counts as cell-based. To be noted: concentration shifting the capsaicin concentration reaction curve to the right by two times; hTRPV1-CHO cells, FDSS-6000.

Where [5] appears, read: 25° C./60% RH, 6 months, sealed.
Where [6] appears, read: 25° C./60% RH, 13 months, sealed.
Setting [7] is: 25° C./60% RH, 24 months, sealed.
Setting [8] is: 25° C./60% RH, 36 months, sealed.
[9] abbreviates: 25° C./60% RH, 48 months, sealed.
The mark [10] stands for this setting: 1ICH (10-day test; 1.2 million lux hours and 200 watt hours/m^2 or more at 25° C.).

Where only a bound is given, the exact number is not on record here.

Source text for human TRPV1: (1) Establishment of Human TRPV1-Transformed CHO Cell Line
Human vanilloid receptor 1 (hTRPV1) cDNA was cloned from a human brain. The cloned hTRPV1 cDNA was inserted into a pCAGGS vector, which was then genetically introduced into a CHO-K1 cell line to transform the cells. Clones obtained by limiting dilution were stimulated with capsaicin, and clones with a high responsiveness were selected based on increased Ca concentration. The selected clones were then used for the following experiment.
(2) Measurement of Ca Influx Using FDSS-6000
Human TRPV1-transformed CHO cells were seeded at a density of 40,000 cells per well on a 96-well plate (black walls, transparent bottom/manufactured by Greiner Bio-One International GmbH). […] Changes in intracellular Ca concentration were measured for 3 minutes after capsaicin stimulus (1 nmol/L to 1 μmol/L) with an FDSS-6000 (λex: 480 nm, λem: 540 nm, Hamamatsu Photonics K.K.). The integral values of the respective intracellular Ca concentration increase rates in the medium group and the group treated with the crystal of the invention were calculated, and capsaicin concentration reaction curves were prepared.

Consider `O=C(/C=C1\CCOc2cc(C(F)(F)F)ccc21)Nc1cccc2c1C[C@H](O)CC2` [Type I crystal, (E)-2-(7-trifluoromethyl-chroman-4-ylidene)-N-((7R)-7-hydroxy-5,6,7,8-tetrahydronaphthalen-1-yl)acetamide], for which, in data set [1], the “Thermodynamic stability in suspension” value is “thermodynamically stable in suspension”. The “Chemical purity (%)” value in data set [2] (25° C./60% RH, 1 month, sealed) was over 99.9%; in data set [2] (40° C./75% RH, 1 month, sealed), over 99.9%; in data set [2] (60° C., 1 month, sealed), over 99.9%; in data set [2] (Before test) it was over 99.9%; in data set [3] (25° C./60% RH, 3 months, sealed), over 99.9%; in data set [3] (setting [5]) it was over 99.9%. Besides, the “Chemical purity (%)” value in data set [3] (setting [6]), in data set [3] (setting [7]), in data set [3] (setting [8]), in data set [3] (setting [9]), in data set [3] (Before test) and in data set [4] (setting [10]) was over 99.9% throughout. Also, the “Chemical purity (%)” value in data set [4] (Before test) is listed as over 99.9%. In addition, the Crystal form entry is listed as “Type I” in data set [2] (25° C./60% RH, 1 month, sealed); “Type I” in data set [2] (40° C./75% RH, 1 month, sealed); “Type I” in data set [2] (60° C., 1 month, sealed); “Type I” in data set [2] (Before test); “Type I” in data set [3] (setting [5]); “Type I” in data set [3] (setting [6]). Moreover, the Crystal form entry in data set [3] (setting [7]) was “Type I”; in data set [3] (setting [8]) it was “Type I”; in data set [3] (setting [9]), “Type I”; in data set [3] (Before test), “Type I”; in data set [4] (setting [10]), “Type I crystal”; in data set [4] (Before test) it was “Type I crystal”. In data set [3] (during the test periods of Experimental Examples 2 and 3), the Moisture absorption result is reported as “no moisture absorption”. In addition, the “Chemical and physical stability” value in data set [3] (test periods of Experimental Examples 2 and 3) was “chemically and physically stable throughout the test period”. Also, in data set [4], the “Stability with respect to light” value is “extremely high chemical and physical stability”.
Turning to `O=C(/C=C1\CCOc2cc(C(F)(F)F)ccc21)Nc1cccc2c1C[C@H](O)CC2` [Type II crystal, (E)-2-(7-trifluoromethyl-chroman-4-ylidene)-N-((7R)-7-hydroxy-5,6,7,8-tetrahydronaphthalen-1-yl)acetamide], the “Chemical purity (%)” value is given as over 99.9% in data set [2] (25° C./60% RH, 1 month, sealed); over 99.9% in data set [2] (40° C./75% RH, 1 month, sealed); over 99.9% in data set [2] (60° C., 1 month, sealed); over 99.9% in data set [2] (Before test); 98.2% in data set [4] (setting [10]); over 99.9% in data set [4] (Before test). For the same compound, the Crystal form result in data set [2] (25° C./60% RH, 1 month, sealed) was “Type II”; in data set [2] (40° C./75% RH, 1 month, sealed), “Type II”; in data set [2] (60° C., 1 month, sealed) it was “Type II”; in data set [2] (Before test), “Type II”; in data set [4] (setting [10]), “Type II crystal”; in data set [4] (Before test), “Type II crystal”. In data set [4], the “Stability with respect to light” value is reported as “unstable with respect to light”.
Regarding `O=C(/C=C1\CCOc2cc(C(F)(F)F)ccc21)Nc1cccc2c1C[C@H](O)CC2` [Compound (1), (E)-2-(7-trifluoromethyl-chroman-4-ylidene)-N-((7R)-7-hydroxy-5,6,7,8-tetrahydronaphthalen-1-yl)acetamide], on human TRPV1, the A2 value result was “A (A less than 100 nmol/L)”.

For the origin of these results see patent US10208010B2, “Crystal of a heterocyclidene acetamide derivative” (MOCHIDA PHARMACEUTICAL CO., LTD., priority 2017, dated 2019).
